Laboratory results from PMC9503608, “An Insight into Symmetrical Cyanine Dyes as Promising Selective Antiproliferative Agents in Caco-2 Colorectal Cancer Cells” (Molecules, 2022).

Assays:
[1] = system: NHDF cell line; test: Photocytotoxicity evaluation (MTT after white LED light irradiation); assay type: cell-based, human; conditions: 30 min white LED light versus dark
Experimental: The photocytotoxicity evaluation was performed on the NHDF cell line similar to the above MTT cell viability assay. In contrast to 72 h continuous incubation in the dark with test solutions, cells were subjected to 30 min of constant irradiation with white light from an RGBW LED projector (220–240 V and 30 W, Luxtar) after 48 h of incubation. This light source emits radiation at wavelengths suitable for the excitation of evaluated dye (see support information) with a total fluence rate of 1.196 W/sr·m^2 (measured with a pr-650 spectrascan spectroradiometer, Photo Research Inc., Chatsworth, CA, USA). During the photocytotoxicity treatment, the device was placed over the culture cell plates supported by a closed system at a distance of 12 cm. The maximum temperature of the exposure of the cells was 37 °C. After this irradiation, cells were incubated for an additional 24 h, making up a total of 72 h incubation and exposure to the test solutions. To check the validity of the light source, the squaraine dye 4, which was previously described with relevant photodynamic activity, was used as a positive control. A photocytotoxicity assay was performed in quadruplicate, and at least two independent assays were achieved.

[2] = system: Caco-2 cells; test: Morphological analysis by inverted microscopy; assay type: cell-based, human; conditions: 72 h, 20 or 40× magnification, versus untreated cells
Experimental: After the near confluency of the culture, trypsinisation, and counting, Caco-2 cells were seeded (3 mL; 3 × 10^4 cells/mL) in 35 mm cell culture dishes with treatment for the tissue culture. Following 48 h of adherence, the cells were treated with the test solutions and incubated for 72 h in an environment protected from light. At every 24 h, cellular morphology was verified in an Olympus CKX41 SF inverted microscope with a 10, 20, or 40× objective, and the analysis was based on comparing the cells with and without treatment. Cell imaging was captured using a DC6V Olympus digital camera coupled to the microscope.

CN1C(=Cc2oc3ccccc3[n+]2C)Oc2ccccc21.Cc1ccc(S(=O)(=O)[O-])cc1 [Dye 12, 3-Methyl-2-((3-methylbenzo[d]oxazol-2(3H)-ylidene)methyl)benzo[d]oxazol-3-ium 4-methylbenzenesulfonate]
photocytotoxicity (irradiation influence on cytotoxicity) [1]: total absence of photocytotoxicity | morphological changes of Caco-2 cells ([2]; 1 µM): no visible differences | morphological changes of Caco-2 cells ([2]; 10 µM): evident contraction
